Target: human CB1R (Homo sapiens (Human), UniProt P21554)
Assay: CB1 cAMP (assay 2)
Type: cell-based
Settings: CHO cells expressing human CB1R; inhibition of forskolin-stimulated cAMP

Sequence of human CB1R (P21554 whole entry): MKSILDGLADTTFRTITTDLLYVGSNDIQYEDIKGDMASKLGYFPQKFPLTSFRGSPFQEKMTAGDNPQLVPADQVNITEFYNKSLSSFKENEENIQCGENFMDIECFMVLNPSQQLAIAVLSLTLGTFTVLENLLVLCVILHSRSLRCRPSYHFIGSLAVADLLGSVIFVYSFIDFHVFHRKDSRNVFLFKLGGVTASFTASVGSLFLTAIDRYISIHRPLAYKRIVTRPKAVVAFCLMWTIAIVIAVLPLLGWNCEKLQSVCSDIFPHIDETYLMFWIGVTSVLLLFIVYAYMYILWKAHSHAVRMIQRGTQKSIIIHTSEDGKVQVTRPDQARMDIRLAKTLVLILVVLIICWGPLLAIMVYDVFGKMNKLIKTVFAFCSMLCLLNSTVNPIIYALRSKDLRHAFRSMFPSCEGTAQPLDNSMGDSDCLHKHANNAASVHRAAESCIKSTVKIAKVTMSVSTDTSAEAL

SMILES	EC50 [µM]
CC(C)(CO)c1cc(NC(=O)C(C)(C)S(=O)(=O)CC2CCOCC2)on1 [Example 1 in WO2010036630]	> 50
COCC(C)(C)c1cc(NC(=O)C(C)(C)S(=O)(=O)C2CCOCC2)on1 [Example 38 in WO2010036630]	50

Target: human MDR1 P-gp (Homo sapiens (Human), UniProt P08183)
Assay: MDCK assay: efflux in MDCK cells transfected with the human MDR1 gene (assay 3)
Type: in vitro ADME
Settings: MDCK-MDR1 cell monolayers, pH 7.4, 37° C., read-out: MDCK efflux ratio (BA/AB)
Experimental: C. Assessment of Efflux in Madin-Darby Canine Kidney Cells Transfected with the Human MDR1 Gene (MDCK Assay) (Assay 3)
Apparent permeability coefficients (PE) of the compounds across the MDCK-MDR1 cell monolayers are measured (pH 7.4, 37° C.) in apical-to-basal (AB) and basal-to-apical (BA) transport direction. AB permeability (PEAB) represents drug absorption from the blood into the brain and BA permeability (PEBA) drug efflux from the brain back into the blood via both passive permeability as well as active transport mechanisms mediated by efflux and uptake transporters that are expressed on the MDCK-MDR1 cells, predominantly by the overexpressed human MDR1 P-gp. The compounds are assigned to permeability/absorption classes by comparison of the AB permeabilities with the AB permeabilities of reference compounds with known in vitro permeability and oral absorption in the human. Identical or similar permeabilities in both transport directions indicate passive permeation, vectorial permeability points to additional active transport mechanisms. Higher PEBA than PEAB indicates the involvement of active efflux mediated by MDR1 P-gp. Active transport is concentration-dependently saturable.
MDCK-MDR1 cells (1-2×10e5 cells/1 cm2 area) are seeded on filter inserts (Costar transwell polycarbonate or PET filters, 0.4 μm pore size) and cultured (DMEM) for 7 days. Subsequently, the MDR1 expression is boosted by culturing the cells with 5 mM sodium butyrate in full medium for 2 days. Compounds are dissolved in appropriate solvent (like DMSO, 1-20 mM stock solutions). Stock solutions are diluted with HTP-4 buffer (128.13 mM NaCl, 5.36 mM KCl, 1 mM MgSO4, 1.8 mM CaCl2, 4.17 mM NaHCO3, 1.19 mM Na2HPO4×7H2O, 0.41 mM NaH2PO4×H2O, 15 mM HEPES, 20 mM glucose, 0.25% BSA, pH 7.4) to prepare the transport solutions (0.1-300 μM compound, final DMSO<=0.5%). The transport solution (TL) is applied to the apical or basolateral donor side for measuring A-B or B-A permeability (3 filter replicates), respectively. The receiver side contains the same buffer as the donor side. Samples are collected at the start and end of experiment from the donor and at various time intervals for up to 2 hours also from the receiver side for concentration measurement by HPLC-MS/MS or scintillation counting. Sampled receiver volumes are replaced with fresh receiver solution.

Sequence of human MDR1 P-gp (P08183 whole entry): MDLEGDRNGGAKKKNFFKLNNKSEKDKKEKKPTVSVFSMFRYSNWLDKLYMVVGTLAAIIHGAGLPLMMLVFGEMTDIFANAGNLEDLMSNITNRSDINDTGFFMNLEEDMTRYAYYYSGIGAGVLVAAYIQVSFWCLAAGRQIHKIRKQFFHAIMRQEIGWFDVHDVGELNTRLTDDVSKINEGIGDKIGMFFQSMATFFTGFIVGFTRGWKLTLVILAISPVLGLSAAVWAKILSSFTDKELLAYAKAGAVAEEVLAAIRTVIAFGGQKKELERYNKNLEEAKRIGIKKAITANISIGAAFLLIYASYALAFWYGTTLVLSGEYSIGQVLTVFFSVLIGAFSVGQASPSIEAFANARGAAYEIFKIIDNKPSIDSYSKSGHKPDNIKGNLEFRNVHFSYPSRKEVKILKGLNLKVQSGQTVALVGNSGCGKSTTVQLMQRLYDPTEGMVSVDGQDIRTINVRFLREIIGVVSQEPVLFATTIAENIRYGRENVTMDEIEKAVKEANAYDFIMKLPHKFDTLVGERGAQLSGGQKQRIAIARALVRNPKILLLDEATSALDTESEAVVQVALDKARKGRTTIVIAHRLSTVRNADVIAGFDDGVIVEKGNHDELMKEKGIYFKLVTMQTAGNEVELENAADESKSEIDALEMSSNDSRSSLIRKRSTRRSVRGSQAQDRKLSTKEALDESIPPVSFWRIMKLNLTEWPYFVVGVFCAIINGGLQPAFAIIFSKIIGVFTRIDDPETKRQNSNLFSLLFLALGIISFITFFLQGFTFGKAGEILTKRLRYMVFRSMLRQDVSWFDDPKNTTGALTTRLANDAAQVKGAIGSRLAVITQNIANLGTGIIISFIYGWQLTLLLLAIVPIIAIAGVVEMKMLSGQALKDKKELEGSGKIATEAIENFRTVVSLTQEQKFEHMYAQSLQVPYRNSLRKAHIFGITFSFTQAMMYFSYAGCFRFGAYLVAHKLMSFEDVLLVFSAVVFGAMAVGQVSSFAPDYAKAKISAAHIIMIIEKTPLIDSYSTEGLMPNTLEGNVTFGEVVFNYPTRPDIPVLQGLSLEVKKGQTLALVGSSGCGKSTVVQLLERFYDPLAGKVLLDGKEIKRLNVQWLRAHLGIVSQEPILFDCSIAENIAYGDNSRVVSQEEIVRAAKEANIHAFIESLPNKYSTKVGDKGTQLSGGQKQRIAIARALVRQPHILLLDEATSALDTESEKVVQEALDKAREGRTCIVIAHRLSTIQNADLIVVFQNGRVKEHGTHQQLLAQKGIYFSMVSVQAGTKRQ

SMILES	efflux ratio
CC(C)(CO)c1cc(NC(=O)C(C)(C)S(=O)(=O)CC2CCOCC2)on1 [Example 1 in WO2010036630]	16
CC(C)(C#N)c1cc(NC(=O)C(C)(C)S(=O)(=O)CCCC(F)(F)F)on1 [Example 1, N-[3-(Cyano-dimethyl-methyl)-isoxazol-5-yl]-2-methyl-2-(4,4,4-trifluoro-butane-1-sulfonyl)-propionamide]	2.2
CC(C)(CO)c1cc(NC(=O)C(C)(C)S(=O)(=O)C2CCOCC2)on1 [Example 2 in WO2010036630]	7.4
CC(C)(C#N)c1cc(NC(=O)C(C)(C)S(=O)(=O)CC2CCOCC2)on1 [Example 2, N-[3-(Cyano-dimethyl-methyl)-isoxazol-5-yl]-2-methyl-2-(tetrahydro-pyran-4-ylmethanesulfonyl)-propionamide]	6.5
CC(C)(C#N)c1cc(NC(=O)C(C)(C)S(=O)(=O)C2CCOCC2)on1 [Example 3]	2.5
CN(CC1CCOCC1)C(C)(C)C(=O)Nc1cc(C(C)(C)C#N)no1 [Example 4]	0.75
CN(C1CCN(S(C)(=O)=O)CC1)C(C)(C)C(=O)Nc1cc(C(C)(C)C#N)no1 [Example 5]	5.1
CN(CC1CCOCC1)C(C)(C)C(=O)Nc1cc(C(C)(C)CO)no1 [Example 7 in WO2010147792]	1.2
CN(CC1CCOCC1)C(C)(C)C(=O)Nc1nnc(C(C)(C)C#N)s1 [Example 7, N-[5-(Cyano-dimethyl-methyl)-[1,3,4]thiadiazol-2-yl]-2-methyl-2-[methyl-(tetrahydro-pyran-4-ylmethyl)-amino]-propionamide]	2.1
CN(C1CCN(S(C)(=O)=O)CC1)C(C)(C)C(=O)Nc1nnc(C(C)(C)C#N)s1 [Example 8]	16
COCC(C)(C)c1cc(NC(=O)C(C)(C)S(=O)(=O)CC2CCOCC2)on1 [Example 17 in WO2010036630]	4.8
CN(CC1CCOCC1)C(C)(C)C(=O)Nc1nnc(C(C)(C)CO)s1 [Example 30 in WO2010147792]	5.2
COCC(C)(C)c1cc(NC(=O)C(C)(C)S(=O)(=O)C2CCOCC2)on1 [Example 38 in WO2010036630]	2.3
COCC(C)(C)c1cc(NC(=O)C(C)(C)N(C)CC2CCOCC2)on1 [Example 46 in WO2010147792]	0.63
CN(C1CCN(S(C)(=O)=O)CC1)C(C)(C)C(=O)Nc1cc(C(C)(C)CO)no1 [Example 47 in WO2010147792]	14
CC(C)(O)c1cc(NC(=O)C(C)(C)S(=O)(=O)C2CCOCC2)on1 [Example 133 WO2010036630]	4.7

Source: patent US10112934B2, “(Cyano-dimethyl-methyl)-isoxazoles and -[1,3,4]thiadiazoles” (Centrexion Therapeutics Corporation, priority 2013, dated 2018)
